Measured values: patent US11147807B2, “Pharmaceutical composition containing DUSP1 inhibitor” (INDUSTRY-UNIVERSITY COOPERATION FOUNDATION HANYANG …, priority 2017, dated 2021)
pIC50: −log10 of the molar value. Like-named read-outs stand apart in the source and are kept apart here.

What was measured:
[1] = biological target: T1, DUSP1 enzyme (activation domain, amino acid residues 166-316) (Homo sapiens, UniProt P28562); assay: DUSP1 activity inhibitory potency, fluorescence enzyme assay with DiFMUP substrate; assay type: biochemical; details: 50 nM DUSP1 activation domain, 10 μM DiFMUP, 5% DMSO
T1 construct: made in house; host or cells: E. coli BL21
T1 sequence (P28562 166-316): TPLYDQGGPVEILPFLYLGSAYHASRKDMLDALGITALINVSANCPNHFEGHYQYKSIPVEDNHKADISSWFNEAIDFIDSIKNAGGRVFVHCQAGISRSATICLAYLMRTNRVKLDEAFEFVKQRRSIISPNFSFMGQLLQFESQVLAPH
Experimental: The inhibitory potency of the DUSP1 activity on 8 kinds of the compounds screened in Example 1 was measured.
As the assay buffer, 20 mM Tris-HCl (pH 8.0), 0.01% Triton X-100 and 5 mM DTT were used, and a fluorescent substrate of 6,8-difluoro-4-methylumbelliferyl phosphate (DiFMUP) 10 μM was used as the substrate. The DUSP1 enzyme was expressed and purified from the activation domain (amino acid residues 166-316) and was used at 50 nM concentration in the enzyme reaction.
The expression and purification of the activation domain was carried out in the following manner. The DUSP1 activation domain (amino acid residues 166-316) was cloned into the pET28a (Novagen) vector and expressed in E. coli BL21 strain. The E. coli transformed with the expression vector of the DUSP1 activation domain was promoted with 0.1 mM of IPTG (isopropyl β-D-1-thiogalactopyranoside) at 37° C. The E. coli expressed with the DUSP1 activation domain was purified using a nickel affinity column after being crushed with a sonicator. The purified protein was quantified by the Bradford assay and used for the enzyme reaction.
The fluorescence generated by the enzymatic action was measured using a Victor spectrofluorometer (PerkinElmer) with an excitation/emission wavelength of 355 nm/460 nm. From the obtained results, the intermediate suppression value (IC50) was determined according to a 4-parameter logistic method of the Sigmaplot program package (Systat software Inc.), and the measurement results of the DUSP1 enzyme activity inhibitory potency were shown in Table 2 below.

[2] = test system: normal hepatocyte line BNL-CL2; assay: MTT analysis on normal hepatocyte line; assay type: cell-based; details: 96 hours; for cell growth rate (MTT), BNL-CL2 cell line, compound concentration 5.0 μM: BNL-CL2, 5.0 μM, unit assumed
Experimental: (§1) The MTT analysis was performed to confirm the potency of inhibiting the growth of liver cancer cells of the DUSP1 inhibitor compound of the present invention.
(§2) A human liver cancer cell line Hep3B was cultured in DMEM, 10% FBS, 1% Anti-anti (Gibco) and prepared in a 96-well plate at a density of 7,000 cells/well. A normal hepatocyte line BNL-CL2 cell was cultured in DMEM, 10% FBS, 1% Anti-anti (Gibco) and prepared in a 96-well plate at a density of 3,000 cells/well.
(§3) After incubating at 37° C. for 15 hours, Compounds 6 to 8 were treated at the time of medium exchange so that final concentrations of the compounds in the medium become 2.5 μM and 5.0 μM, respectively, and the treatment conditions were adjusted so that the final DMSO concentration in the medium after treatment of the compounds can be maintained to 0.5%.
(§4) After 96 hours, a cell growth rate was measured using the Roche Cell […] Assay I (MTT) Kit. 10 μL of the MTT solution was added to each of 100 μL wells to a final concentration of 0.5 mg/ml, and then incubated at 37° C. for 4 hours and 100 μL of the solubilization buffer provided in the Kit was added.

PC12 neuron = assay: Neurite outgrowth assay with NGF; assay type: cell-based; details: PC12, phase contrast microscope, 72 hours
Experimental: The Neurite outgrowth assay was carried out with PC12 neuron by appropriately modifying the protocol described in Ishima et al., (2015) Potentiation of neurite outgrowth by brexpiprazole, a novel serotonin-dopamine activity modulator: A role for serotonin 5-HT1A and 5-HT2A receptors. Eur. Neuropsychopharm. 25, 505-511.
The PC12 neurite cells were distributed by the Korea Cell Line Bank (Seoul National University in Korea) and prepared in a 96-well plate at a density of 7,000 cells/well. The cell culture was performed in Dulbeco's Modified Eagle's Media (DMEM), 10% FBS and 1% Anti-anti (Gibco).

[3] = test system: human liver cancer cell line Hep3B; assay: MTT analysis of liver cancer cell growth inhibition; assay type: cell-based; details: 96 hours, unit assumed
Experimental: as §1, §2, §3, §4

[4] = test system: human liver cancer cell line Hep3B xenograft; assay: Xenograft assay for tumor suppression; assay type: in vivo; details: Hep3B xenograft in nude mouse, two intratumoral doses 4 days apart, measured 4 days after second dose; FIG. 4
Experimental: Using a xenograft assay method, it was confirmed whether the DUSP1 inhibitor of the present invention has the potency of inhibiting the cell growth of a liver cancer.
A human liver cancer cell line Hep3B of 1×10^7 was injected into the subcutaneous layer of the back of a nude mouse in DMEM medium, and then when the cell line was 200 to 500 mm^3 in size, it was extracted and inserted into the subcutaneous layer of the back of a new nude mouse in the size of 5×5×5 mm.
The primary and secondary compounds 7 were administered intratumorally at concentrations of 3 μg and 6 μg, respectively, and the primary and secondary compounds 8 were administered intratumorally at concentrations of 2 μg and 4 μg, respectively.

[5] = biological target: T1, DUSP1 enzyme (activation domain, amino acid residues 166-316); details: comparison value quoted in text; read-out: IC50 value of known selective DUSP1 inhibitor; cited from earlier work

SMILES	pIC50 [1]	cell growth rate (MTT), BNL-CL2 cell line, compound concentration […] [2]	further results
CC(C)C(=O)c1c(Nc2cc(Cl)cc(Cl)c2)[nH]c2c(Cl)ccc([N+](=O)[O-])c2c1=O [Compound 1]	5.29	–	–
CC(=O)c1c(Nc2ccc(Cl)cc2Cl)[nH]c2c(Cl)ccc(F)c2c1=O [Compound 3]	5.12	–	–
CC(=O)c1c(Nc2ccc(Br)cc2Br)[nH]c2c(Cl)ccc(F)c2c1=O [Compound 4]	5.21	–	–
CC(C)CC(=O)c1c(Nc2cccc(Cl)c2Cl)[nH]c2c(Cl)ccc([N+](=O)[O-])c2c1=O [Compound 8]	5.32	139	cell growth rate (MTT), BNL-CL2 cell line, compound concentration 5.0 μM [2]: 54%; cell growth rate (MTT), HEP3B cell line, compound concentration 5.0 μM [3]: 16%; tumor size reduction [4]: about 85%
C[n+]1cc2c3c(ccc2c2ccc4cc5c(cc4c21)OCO5)OCO3 [Sanguinarin]	–	–	pIC50 [5]: 5.00

More lines, in order of rising pIC50 [1], values ahead:

pIC50 [1]	SMILES	cell growth rate (MTT), BNL-CL2 cell line, compound concentration […] [2]	further results
5.38	CC(=O)c1c(Nc2cc(C(F)(F)F)cc(C(F)(F)F)c2)[nH]c2c(Cl)ccc(F)c2c1=O [Compound 6]	111	cell growth rate (MTT), BNL-CL2 cell line, compound concentration 5.0 μM [2]: 8%; induction of neurite outgrowth (PC12 neuron): shape of neurites stretching from the cell can be confirmed; cell growth rate (MTT), HEP3B cell line, compound concentration 5.0 μM [3]: 14%
5.39	O=C(c1c(Nc2cc(Cl)cc(Cl)c2)[nH]c2c(Cl)ccc([N+](=O)[O-])c2c1=O)C1CC1 [Compound 5]	–	–
5.46	CC(C)CC(=O)c1c(Nc2cc(Cl)cc(Cl)c2)[nH]c2c(Cl)ccc([N+](=O)[O-])c2c1=O [Compound 7]	156	tumor size reduction [4]: about 70%
